Experiment [1] concerns Nurr1 over-expressing C17.2 clones. Description: Treatment of Nurr1 clones with trophic factors, mitogens, cytokines and other agents; TH immunoreactivity. The format is cell-based, mouse. The note with it: Nurr1 clones without co-culture; factors alone or combined. An excerpt: C17.2 cells were cotransfected with a CMX-Nurr1 expression vector (Perlmann, T. et al. Genes Dev. 9, 769-782 (1995)) and PGK-puromycin resistance plasmids (Nurr1 clones) or a PGK-puromycin alone (mock clones). For reporter assays, C17.2 parental cells were transfected with the Nurr1 expression vector, the reporter plasmid (NGFIB-binding response element (NBRE) triplet upstream of TK minimal promoter fused to firefly luciferase) and a pRSV-alkaline phosphatase plasmid at a 2:1:2 ratio.
(§1) C17.2 neural stem cells (Snyder, E. Y. et al. Cell 68, 33-51 (1992)) were maintained and passaged as previously described (Snyder, E. Y. et al. Cell 68, 33-51 (1992)). Ventral mesencephala from E16 rat embryos were dissected, mechanically dissociated and plated at a final density of 1×10^5 cells/cm^2 on poly-D-lysine coated culture wells in a defined, serum-free medium (N^2, consisting of a 1:1 mixture of F12 and DMEM containing insulin (10 ng/ml), transferrin (100 μg/ml), putrescine (100 μM), progesterone (20 nM), selenium (30 nM) glucose (6 mg/ml), and bovine serum albumin (1 mg/ml)). After 24 hours in vitro, co-cultures were initiated by directly plating 2.5−5×10^4 C17.2-derived cells into the primary cultures; all ages of cultures given use this point as 0 DIV. […] Purified Type 1 astrocytes were obtained from mixed glial cultures derived from various regions of P1 rats according to a standard protocol (McCarthy, K. D. et al. J. Cell Biol. 85, 890-902 (1980)). After replating into 6- or 12-well plates, astrocytes were grown to confluency in serum-containing media and changed to N2 medium. After 3-5 DIV, co-cultures were initiated in fresh N2 as described above. All factors were added once, at the initiation of co-culture (concentrations are noted in the Results and Discussion), with the exception of 5-bromodeoxyuridine (BrdU), which was added 4-6 hours prior to fixation. Cultures were maintained in a humidified 5% CO2, 95% air incubator at 37 C and fixed after given time periods with 4% paraformaldehyde for 45 minutes for immunocytochemical analysis.
Fixed cultures were incubated with one of the following antibodies, diluted appropriately in phosphate-buffered saline (PBS) containing 1% bovine serum albumin and 0.3% Triton-X 100: mouse anti-BrdU, 1:50 (DAKO, Denmark), mouse anti-β-tubulin, Type III (TuJ1), 1:250 (Sigma), mouse anti-TH, 1:1000 (Incstar, USA), rabbit anti-β-galactosidase, 1:250 (Cappel, USA) rabbit anti-GFAP, 1:500 (DAKO, Denmark), rabbit anti-AHD-2, 1:4000. Incubations were either carried out at 4° C. overnight, or at room temperature for 1 hour. […] After washing, cultures were incubated for 1-3 hr with appropriate secondary antibodies (biotinylated horse-anti-mouse IgG or goat-anti-rabbit IgG, Vector, USA), 1:100, in the same dilution buffer. Immunostaining was visualized with the Vector Laboratory ABC immunoperoxidase kit, using either AEC (red) or SG (grey) substrates. […] Quantitative immunocytochemical data represent means and standard errors from 100-500 cells counted in each of 3-6 separate wells from 2-4 experiments. For quantitation of TH expression in co-cultures of primary and C-17.2-derived cells, TH was visualized with the brightfield AEC substrate, while β-gal was assessed using FITC, thus all data expressed as “% TH+” represents the number of TH+/β-gal+divided by total β-gal positive cells.

The test system of another experiment is RXR retinoid receptors. As to conditions: Lehmann et al. 1992; cited from earlier work.
The test system of another experiment is parental C17.2 cells. Kind of experiment: Co-culture of parental C17.2 cells with primary E16 ventral mesencephalic cells; TH expression. It counts as cell-based, mouse. As to conditions: parental C17.2 cells in co-culture; SR11237 to 1 μM, bFGF to 10 ng/ml. On the procedure:
(§2) C17.2 neural stem cells (Snyder, E. Y. et al. Cell 68, 33-51 (1992)) were maintained and passaged as previously described (Snyder, E. Y. et al. Cell 68, 33-51 (1992)). Ventral mesencephala from E16 rat embryos were dissected, mechanically dissociated and plated at a final density of 1×10^5 cells/cm^2 on poly-D-lysine coated culture wells in a defined, serum-free medium (N^2, consisting of a 1:1 mixture of F12 and DMEM containing insulin (10 ng/ml), transferrin (100 μg/ml), putrescine (100 μM), progesterone (20 nM), selenium (30 nM) glucose (6 mg/ml), and bovine serum albumin (1 mg/ml)). After 24 hours in vitro, co-cultures were initiated by directly plating 2.5−5×10^4 C17.2-derived cells into the primary cultures; all ages of cultures given use this point as 0 DIV. […]
(§3) Fixed cultures were incubated with one of the following antibodies, diluted appropriately in phosphate-buffered saline (PBS) containing 1% bovine serum albumin and 0.3% Triton-X 100: mouse anti-BrdU, 1:50 (DAKO, Denmark), mouse anti-β-tubulin, Type III (TuJ1), 1:250 (Sigma), mouse anti-TH, 1:1000 (Incstar, USA), rabbit anti-β-galactosidase, 1:250 (Cappel, USA) rabbit anti-GFAP, 1:500 (DAKO, Denmark), rabbit anti-AHD-2, 1:4000. […] Quantitative immunocytochemical data represent means and standard errors from 100-500 cells counted in each of 3-6 separate wells from 2-4 experiments. […]

A further experiment has as its system C17.2 cells. As to conditions: Kitchens et al. 1994; cited from earlier work.
For a further experiment, the system named is C17.2 clonal lines. Description: Baseline proliferation of clonal lines after extended factor treatment in serum-free medium. It counts as cell-based, mouse. As to conditions: after extended treatment with the factor in serum-free medium; most clonal lines. On the procedure: as §1, with “Cultures were maintained in a humidified 5% CO2, 95% air incubator at 37 C and fixed after given time periods with 4% paraformaldehyde for 45 minutes for immunocytochemical analysis.” left out

For another experiment, the system named is Nurr1-C17.2 clone 42. Description: Co-culture of Nurr1-C17.2 clone 42 with primary E16 ventral mesencephalic cells; TH expression. As to conditions: clone 42 with primary VM cells. The format is cell-based, mouse. On the procedure: as §2, §3
The test system of a further experiment is Nurr1 clones. Kind of experiment: bFGF pretreatment of Nurr1 clones before co-culture with primary ventral mesencephalic cultures; BrdU labeling and TH expression. It counts as cell-based, mouse. As to conditions: bFGF pretreatment 5 DIV. On the procedure:
as §2, §3
On the technique in general: Dividing cells build labelled thymidine or BrdU into new DNA.

Experiment [2] concerns Nurr1-c42-derived dopaminergic neurons. Kind of experiment: Response of TH positive c42 cells in co-culture to neurotrophic factors. It counts as cell-based, mouse. As to conditions: 9 DIV, after SR11237 and bFGF induction; compared to N2 control; NT-3 30 ng/ml. On the procedure:
as §2, §3

As for `NCCc1ccc(O)c(O)c1` [dopamine], the “induction of TH expression” value in experiment [1] was “None of these factors induced TH expression in any of the clones”.
The same measure, in the same setting: next, insulin-like growth factor: “None of these factors induced TH expression in any of the clones”.
For the compound sonic hedgehog, the “induction of TH expression” value in experiment [1] was “None of these factors induced TH expression in any of the clones”.
For `CC1(C)CCC(C)(C)c2cc(C3(c4ccc(C(=O)O)cc4)OCCO3)ccc21` [SR11237, reference compound], the “stimulation of RXR retinoid receptors” value with RXR retinoid receptors is recorded as “specifically stimulates RXR retinoid receptors”. In addition, in the experiment with parental C17.2 cells, the “induction of TH expression” value is listed as “did not induce expression of TH”.
With “EGF: epidermal growth factor, mitogen (NSDSECPLSHDGYCLHDGVCMYIEALDKYACNCVVGYIGERCQYRDLKWWELR; Epidermal growth factor; UniProt P01133 971-1023, looked up)”, the “induction of TH expression” value in experiment [1] is given as “None of these factors induced TH expression in any of the clones”. The mitogenic effect entry with C17.2 cells is listed as “directly mitogenic”. For the same compound, the “baseline proliferation after passage into SFM alone” value in the experiment with C17.2 clonal lines is on record as “remained unexpectedly elevated”. In addition, in the experiment on Nurr1-C17.2 clone 42, the “effect on TH expression in co-culture (in words)” value was “effects of bFGF could be substituted by EGF”.
Turning to “bFGF: basic fibroblast growth factor, mitogen”, the “induction of TH expression” value is on record as “None of these factors induced TH expression in any of the clones” in experiment [1] and “did not induce expression of TH” in the experiment on parental C17.2 cells. The mitogenic effect entry with C17.2 cells was “directly mitogenic”. For the same compound, the “% TH+ cells after co-culture” value in the experiment with Nurr1 clones (co-culture 9 DIV, highest value, clone 42) is not above 45%. Also, in the experiment with Nurr1 clones (24 hours after passage into co-culture, versus cells split directly out of serum-containing medium), the “BrdU labeling of pretreated Nurr1 clones” value is on record as “increased”. The “number of TH+ cells in the culture” value in experiment [2] was “dramatically increased the number of TH+ cells”. Besides, in the experiment with C17.2 clonal lines, the “baseline proliferation after passage into SFM alone” value was “remained unexpectedly elevated”.
As for `CC1=C(/C=C/C(C)=C/C=C/C(C)=C/C(=O)O)C(C)(C)CCC1` [all-trans retinoic acid, reference compound], the “effect on TH expression in co-culture (in words)” value in the experiment with Nurr1-C17.2 clone 42 was “without effect”.

(Values after patent US7465582B1, “Nurr-1 induction of a dopaminergic neuronal fate in a neural stem cell or neural progenitor cell in vitro” (Neuro Therapeutics AB, priority 2000, dated 2008).)
